According to PubChem BioAssay (NCI):
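Five compound concentrations were applied to cells in 96-well plates for 48 hours; endpoints were derived by simple linear interpolation of the resulting dose-response curve. GI50: concentration for 50% inhibition of growth. TGI: concentration producing complete growth inhibition.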

How the values were obtained:
Assay in all cases: NCI-60 cell line screen, 48 h
[1] = test system: OVCAR-4 ovarian
[2] = test system: COLO 205 colon
[3] = test system: U251 CNS
[4] = test system: NCI-H23 lung
[5] = test system: M14 melanoma
[6] = test system: MDA-MB-435
[7] = test system: MALME-3M melanoma
[8] = test system: ACHN renal
[9] = test system: K-562 leukemia
[10] = test system: UO-31 renal
[11] = test system: 786-0 renal
[12] = test system: RXF 393 renal
[13] = test system: SNB-75 CNS
[14] = test system: BT-549 breast
[15] = test system: SK-MEL-5 melanoma
[16] = test system: RPMI-8226 leukemia
[17] = test system: A498 renal
[18] = test system: IGROV1 ovarian
[19] = test system: SK-MEL-28 melanoma
[20] = test system: NCI/ADR-RES ovarian
[21] = test system: HCT-15 colon
[22] = test system: OVCAR-5 ovarian
[23] = test system: HL-60(TB) leukemia
[24] = test system: NCI-H522 lung
[25] = test system: CAKI-1 renal
[26] = test system: SF-295 CNS
[27] = test system: CCRF-CEM leukemia
[28] = test system: SF-268 CNS
[29] = test system: OVCAR-8 ovarian
[30] = test system: SF-539 CNS
[31] = test system: HS 578T breast
[32] = test system: T-47D breast
[33] = test system: MDA-MB-231 breast
[34] = test system: A549 NSCLC
[35] = test system: SK-OV-3 ovarian
[36] = test system: MCF7 breast
[37] = test system: SR leukemia
[38] = test system: KM12 colon
[39] = test system: SN12C renal
[40] = test system: NCI-H226 lung
[41] = test system: NCI-H460 lung
[42] = test system: PC-3 prostate
[43] = test system: SK-MEL-2 melanoma
[44] = test system: OVCAR-3 ovarian
[45] = test system: MOLT-4 leukemia
[46] = test system: UACC-62 melanoma
[47] = test system: HOP-62 NSCLC
[48] = test system: HCT-116 colon
[49] = test system: HCC-2998 colon
[50] = test system: UACC-257 melanoma
[51] = test system: DU-145 prostate
[52] = test system: SW-620 colon
[53] = test system: SNB-19 CNS
[54] = test system: TK-10 renal
[55] = test system: LOX IMVI melanoma
[56] = test system: HT29 colon

COc1cc(C(=O)NN=C2c3ccccc3-c3ccccc32)cc(OC)c1OC
GI50 [1]: 17.5 µM
TGI [1]: > 100 µM
GI50 [2]: 3.49 µM
TGI [2]: 32.1 µM
GI50 [3]: 3.3 µM
TGI [3]: 20.3 µM
GI50 [4]: 3.94 µM
TGI [4]: 41.4 µM
GI50 [5]: 2.58 µM
TGI [5]: 92.4 µM
GI50 [6]: 0.3 µM
TGI [6]: 1.46 µM
GI50 [7]: 2.45 µM
TGI [7]: 16.7 µM
GI50 [8]: 4.21 µM
TGI [8]: 24.2 µM
GI50 [9]: 0.829 µM
TGI [9]: 26.2 µM
GI50 [10]: 4.02 µM
TGI [10]: 75.3 µM
GI50 [11]: 6.86 µM
TGI [11]: 31.3 µM
GI50 [12]: 2.76 µM
TGI [12]: 29.3 µM
GI50 [13]: 2.86 µM
TGI [13]: 21 µM
GI50 [14]: 3.78 µM
TGI [14]: 28.9 µM
GI50 [15]: 2.65 µM
TGI [15]: 18 µM
GI50 [16]: 3.5 µM
TGI [16]: > 100 µM
GI50 [17]: 2.95 µM
TGI [17]: 13.9 µM
GI50 [18]: 3.47 µM
TGI [18]: 32.9 µM
GI50 [19]: 6.26 µM
TGI [19]: > 100 µM
GI50 [20]: 2.06 µM
TGI [20]: 11.7 µM
GI50 [21]: 2.63 µM
TGI [21]: > 100 µM
GI50 [22]: 7.95 µM
TGI [22]: > 100 µM
GI50 [23]: 2.21 µM
TGI [23]: 7.12 µM
GI50 [24]: 1.77 µM
TGI [24]: 5.8 µM
GI50 [25]: 2.14 µM
TGI [25]: 7.92 µM
GI50 [26]: 1.99 µM
TGI [26]: 7.13 µM
GI50 [27]: 3.53 µM
TGI [27]: > 100 µM
GI50 [28]: 4.57 µM
TGI [28]: 27.7 µM
GI50 [29]: 4.93 µM
TGI [29]: 39 µM
GI50 [30]: 2.1 µM
TGI [30]: 5.32 µM
GI50 [31]: 3.5 µM
TGI [31]: 26.3 µM
GI50 [32]: 3.9 µM
TGI [32]: 65.5 µM
GI50 [33]: 2.93 µM
TGI [33]: 20 µM
GI50 [34]: 3.26 µM
TGI [34]: > 100 µM
GI50 [35]: 4.12 µM
TGI [35]: > 100 µM
GI50 [36]: 2.28 µM
TGI [36]: > 100 µM
GI50 [37]: 0.339 µM
TGI [37]: 10.6 µM
GI50 [38]: 2.15 µM
TGI [38]: > 100 µM
GI50 [39]: 4.48 µM
TGI [39]: 41.2 µM
GI50 [40]: 14.8 µM
TGI [40]: 73.9 µM
GI50 [41]: 3.17 µM
TGI [41]: 26.6 µM
GI50 [42]: 2.72 µM
TGI [42]: 25 µM
GI50 [43]: 2.84 µM
TGI [43]: 12.7 µM
GI50 [44]: 2.33 µM
TGI [44]: 10.6 µM
GI50 [45]: 5.12 µM
TGI [45]: > 100 µM
GI50 [46]: 3.09 µM
TGI [46]: 24.8 µM
GI50 [47]: 5.15 µM
TGI [47]: 35.9 µM
GI50 [48]: 2.71 µM
TGI [48]: > 100 µM
GI50 [49]: 10.5 µM
TGI [49]: 57.8 µM
GI50 [50]: 3.33 µM
TGI [50]: 34.2 µM
GI50 [51]: 5.34 µM
TGI [51]: 32.8 µM
GI50 [52]: 2.53 µM
TGI [52]: > 100 µM
GI50 [53]: 6.56 µM
TGI [53]: 43.5 µM
GI50 [54]: 7.86 µM
TGI [54]: 32.6 µM
GI50 [55]: 2.78 µM
TGI [55]: 49.4 µM
GI50 [56]: 2.32 µM
TGI [56]: 56.6 µM
